In a compilation of properties of binary mixtures (doi:10.1515/zpch-2013-0494):

Assay: xn = mol fraction of the nth substance listed
Conditions: 101 kPa

CCCCCCCCCCCCCC[P+](CCCCCC)(CCCCCC)CCCCCC.N#C[N-]C#N + CCCCCCCCCCCC
viscosity [mPa·s]
Conditions | 298.15 K | 303.15 K | 308.15 K | 313.15 K | 318.15 K | 333.15 K | 338.15 K | 343.15 K | 348.15 K | 353.15 K
x1 = 0.5534 | 160 | 116 | – | 71.6 | 57.8 | 32.8 | 28 | – | 21.2 | 19
x1 = 0.736 | 238 | 181 | 141 | – | 89.1 | 49.3 | 41.4 | 35.5 | 30.3 | 26.1
x1 = 1 | 440 | – | – | 196 | – | 82 | – | 56 | – | –

CCCCCCCCCCCCCC[P+](CCCC)(CCCC)CCCC.CCCCCCCCCCCCc1ccccc1S(=O)(=O)[O-] + CCCCCCCCCCCC
viscosity [mPa·s]
Conditions | x1 = 0.354 | x1 = 0.4402 | x1 = 0.4844 | x1 = 0.6789 | x1 = 1
298.15 K | 312 | – | 594 | 2930 | –
303.15 K | 225 | – | 441 | 1580 | –
308.15 K | 167 | 239 | – | 1130 | –
313.15 K | – | – | – | 812 | 1480
318.15 K | 95 | 135 | 176 | – | –
323.15 K | 74.3 | 105 | 135 | 431 | 750
328.15 K | – | 81.7 | 101 | – | –
333.15 K | 47.7 | 65.7 | 81.6 | 228 | 409
338.15 K | – | 53.6 | – | 169 | –
343.15 K | 31.5 | 44.3 | 54.4 | – | 238
348.15 K | 26.5 | 36.8 | 43.3 | 108 | –
353.15 K | 22.6 | 31.1 | 37.1 | – | 148

CC(CC(C)(C)C)CP(=O)([O-])CC(C)CC(C)(C)C.CCCCCCCCCCCCCC[P+](CCCCCC)(CCCCCC)CCCCCC + CCCCCCCCCCCC
viscosity [mPa·s]
Conditions | x1 = 0.4684 | x1 = 0.6647 | x1 = 0.8071 | x1 = 1
298.15 K | – | 249 | 449 | 1000
303.15 K | 64.2 | 195 | 344 | –
308.15 K | – | 156 | 291 | –
313.15 K | 48 | 126 | 233 | 439
318.15 K | 40.9 | – | 180 | –
323.15 K | 35.2 | 85 | 144 | 264
328.15 K | 30.5 | 69.9 | 118 | –
333.15 K | 27.1 | 59.3 | 95.4 | 170
338.15 K | 24.2 | – | 81.1 | –
343.15 K | 21.2 | – | 65 | –
353.15 K | – | – | – | 78
